Laboratory results as given in patent publication EP3046573B1, “AMYLIN ANALOGUES” (Zealand Pharma A/S, priority 2013, dated 2015).
Read-outs that look alike come from different tables or passages of the source. Numbered stars: 1 amine (or outer) side, 2 acyl side, 3 side chain; on linkers, the order of the positions; unused ones are H or OH. Bridge positions count the residues as written; N and C are the ends. Square brackets hold non-standard residues; d marks the D form. Peptide text beside a SMILES is read from it. * marks the point of attachment. C20 diacid = O=C(O)CCCCCCCCCCCCCCCCCCC(=O)*; γGlu = O=C(O)[C@H](CCC(=O)[*:2])N[*:1]; NMeI = CC[C@H](C)[C@H](NC)C(=O)O; Sar = CNCC(=O)O

Columns and labels:
[1] = biological target: T1, human calcitonin receptor (hCTR2) (Homo sapiens, UniProt P30988); experiment: hCTR2 assay: induction of cAMP (AlphaScreen cAMP Assay kit) in COS7 cells expressing hCTR2; assay type: cell-based
T1 construct: expressed in transfected cells
T1 sequence (P30988 25-474): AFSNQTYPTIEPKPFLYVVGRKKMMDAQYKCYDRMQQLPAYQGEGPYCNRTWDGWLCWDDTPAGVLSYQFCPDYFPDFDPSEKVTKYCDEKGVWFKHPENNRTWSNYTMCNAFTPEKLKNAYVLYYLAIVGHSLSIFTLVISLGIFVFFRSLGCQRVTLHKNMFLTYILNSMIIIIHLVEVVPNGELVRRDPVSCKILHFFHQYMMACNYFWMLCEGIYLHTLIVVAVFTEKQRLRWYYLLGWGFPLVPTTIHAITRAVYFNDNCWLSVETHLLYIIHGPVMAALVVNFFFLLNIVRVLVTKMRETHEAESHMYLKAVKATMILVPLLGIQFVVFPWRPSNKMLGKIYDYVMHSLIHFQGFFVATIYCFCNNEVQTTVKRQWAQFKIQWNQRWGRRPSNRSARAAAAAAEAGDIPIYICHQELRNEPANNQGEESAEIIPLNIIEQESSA
In short: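 Functional agonism is measured as cAMP accumulation in a COS7 line stably transfected with hCTR2, lacking endogenous RAMPs. Peptides act for 15 min at 37° C with IBMX present, and curves are fitted with a 4-parameter logistic model.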

[2] = Solubility assessment (turbidity absorbance at 325 nm); assay type: physicochemical; settings: stock 2 mg/ml diluted 1:1, ambient temperature (typically 25°C), n=1; for Solubility, Acetate buffer pH 4: 100 mM acetate buffer pH 4.0; for Solubility, Acetate buffer pH 5: 100 mM acetate buffer pH 5.0; for Solubility, Histidine buffer pH 6: 100 mM histidine buffer pH 6.0; for Solubility, Histidine buffer pH 7: 100 mM histidine buffer pH 7.0; for Solubility, Phosphate buffer pH 6: 100 mM phosphate buffer pH 6.0; for Solubility, Phosphate buffer pH 7: 100 mM phosphate buffer pH 7.0; for Solubility, Phosphate buffer pH 7.5: 100 mM phosphate buffer pH7.5
In short: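 Peptide stock (2 mg/ml) in water acidified to pH 2.5 with HCl was diluted 1:1 into 100 mM acetate (pH 4.0, 5.0), histidine (pH 6.0, 7.0) or phosphate (pH 6.0, 7.0, 7.5) buffer. A280 and A325 were read at about 25°C, n=1. A325 ≤ 0.02 meant solubility ≥ 1 mg/ml.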

[3] = cAMP induction in COS7 cells expressing hCTR2, average of a minimum of 3 determinations, read-out: hCTR2 EC50

| EC50 [1, 3] [nM] | Compound | EC50 [1] [nM] | Solubility, Acetate buffer pH 4 [2] | Solubility, Acetate buffer pH 5 [2] | Solubility, Histidine buffer pH 6 [2] | Solubility, Histidine buffer pH 7 [2] | Solubility, Phosphate buffer pH 6 [2] | Solubility, Phosphate buffer pH 7 [2] | Solubility, Phosphate buffer pH 7.5 [2] |
| --- | --- | --- | --- | --- | --- | --- | --- | --- | --- |
|  | CC[C@H](C)[C@@H](C(=O)N[C@@H](CC(C)C)C(=O)N[C@@H](CO)C(=O)N[C@@H](CO)C(=O)N[C@H](C(=O)N[C@@H](CC(N)=O)C(=O)N[C@H](C(=O)NCC(=O)N[C@@H](CO)C(=O)N[C@@H](CC(N)=O)C(=O)N[C@H](C(=O)N1CCC[C@H]1C(N)=O)[C@@H](C)O)C(C)C)[C@@H](C)O)N(C)C(=O)[C@H](C)NC(=O)CN(C)C(=O)[C@H](Cc1ccccc1)NC(=O)[C@H](CC(N)=O)NC(=O)[C@H](CC(N)=O)NC(=O)[C@H](CO)NC(=O)[C@H](CO)NC(=O)[C@H](Cc1c[nH]cn1)NC(=O)[C@H](Cc1c[nH]cn1)NC(=O)[C@H](CC(C)C)NC(=O)[C@H](Cc1ccccc1)NC(=O)[C@H](CCC(=O)O)NC(=O)[C@H](C)NC(=O)[C@H](CC(C)C)NC(=O)[C@H](CCCNC(=N)N)NC(=O)[C@H](CCC(N)=O)NC(=O)[C@@H](NC(=O)[C@H](C)NC(=O)[C@@H]1CSSC[C@H](NC(=O)[C@H](CCCCN)NC(=O)CC[C@H](NC(=O)CCCCCCCCCCCCCCCCCCC(=O)O)C(=O)O)C(=O)N[C@@H](CC(N)=O)C(=O)N[C@@H]([C@@H](C)O)C(=O)N[C@@H](C)C(=O)N[C@@H]([C@@H](C)O)C(=O)N1)[C@@H](C)O [Compound 19, [19CD]-isoGlu-KC()NTATC()ATQRLAEFLHHSSNNF-Gly(Me)-A-Ile(Me)-LSSTNVGSNTP-NH2] ({C20 diacid-γGlu}-KCNTATCATQRLAEFLHHSSNNF[Sar]A[NMeI]LSSTNVGSNTP-NH2; disulfide 2-7) | 0.071 | SS (SS indicates solubility ≥ 1mg/ml) | SS (SS indicates solubility ≥ 1mg/ml) | SS (SS indicates solubility ≥ 1mg/ml) | SS (SS indicates solubility ≥ 1mg/ml) | SS (SS indicates solubility ≥ 1mg/ml) | SS (SS indicates solubility ≥ 1mg/ml) | SS (SS indicates solubility ≥ 1mg/ml) |
| 0.094 | CC[C@H](C)[C@@H](C(=O)N[C@@H](CC(C)C)C(=O)N[C@@H](CO)C(=O)N[C@@H](CO)C(=O)N[C@H](C(=O)N[C@@H](CC(N)=O)C(=O)N[C@H](C(=O)NCC(=O)N[C@@H](CO)C(=O)N[C@@H](CC(N)=O)C(=O)N[C@H](C(=O)N1CCC[C@H]1C(N)=O)[C@@H](C)O)C(C)C)[C@@H](C)O)N(C)C(=O)CN(C)C(=O)[C@H](Cc1ccccc1)NC(=O)[C@H](CC(N)=O)NC(=O)[C@H](CC(N)=O)NC(=O)[C@H](CO)NC(=O)[C@H](CO)NC(=O)[C@H](Cc1c[nH]cn1)NC(=O)[C@H](Cc1c[nH]cn1)NC(=O)[C@H](CC(C)C)NC(=O)[C@H](Cc1ccccc1)NC(=O)[C@H](CCC(=O)O)NC(=O)[C@H](C)NC(=O)[C@H](CC(C)C)NC(=O)[C@H](CCCNC(=N)N)NC(=O)[C@H](CCC(N)=O)NC(=O)[C@@H](NC(=O)[C@H](C)NC(=O)[C@@H]1CSSC[C@H](NC(=O)[C@H](CCCCN)NC(=O)CC[C@H](NC(=O)CCCCCCCCCCCCCCCCCCC(=O)O)C(=O)O)C(=O)N[C@@H](CC(N)=O)C(=O)N[C@@H]([C@@H](C)O)C(=O)N[C@@H](C)C(=O)N[C@@H]([C@@H](C)O)C(=O)N1)[C@@H](C)O [Compound 20, [19CD]-isoGlu-KC()NTATC()ATQRLAEFLHHSSNNF-Gly(Me)-Ile(Me)-LSSTNVGSNTP-NH2] ({C20 diacid-γGlu}-KCNTATCATQRLAEFLHHSSNNF[Sar][NMeI]LSSTNVGSNTP-NH2; disulfide 2-7) |  | SS (SS indicates solubility ≥ 1mg/ml) | SS (SS indicates solubility ≥ 1mg/ml) | SS (SS indicates solubility ≥ 1mg/ml) | SS (SS indicates solubility ≥ 1mg/ml) | SS (SS indicates solubility ≥ 1mg/ml) | SS (SS indicates solubility ≥ 1mg/ml) | SS (SS indicates solubility ≥ 1mg/ml) |
|  | CC[C@H](C)[C@@H](C(=O)N[C@@H](CC(C)C)C(=O)N[C@@H](CO)C(=O)N[C@@H](CO)C(=O)N[C@H](C(=O)N[C@@H](CC(N)=O)C(=O)N[C@H](C(=O)NCC(=O)N[C@@H](CO)C(=O)N[C@@H](CC(N)=O)C(=O)N[C@H](C(=O)N1CCC[C@H]1C(N)=O)[C@@H](C)O)C(C)C)[C@@H](C)O)N(C)C(=O)[C@H](C)NC(=O)CN(C)C(=O)[C@H](Cc1ccccc1)NC(=O)[C@H](CC(N)=O)NC(=O)[C@H](CC(N)=O)NC(=O)[C@H](CO)NC(=O)[C@H](CO)NC(=O)[C@H](Cc1c[nH]cn1)NC(=O)[C@H](CCCNC(=N)N)NC(=O)[C@H](CC(C)C)NC(=O)[C@H](Cc1ccccc1)NC(=O)[C@H](CCC(=O)O)NC(=O)[C@H](C)NC(=O)[C@H](CC(C)C)NC(=O)[C@H](CCCNC(=N)N)NC(=O)[C@H](CCC(N)=O)NC(=O)[C@@H](NC(=O)[C@H](C)NC(=O)[C@@H]1CSSC[C@H](NC(=O)[C@H](CCCNC(=N)N)NC(=O)CC[C@H](NC(=O)CCCCCCCCCCCCCCCCCCC(=O)O)C(=O)O)C(=O)N[C@@H](CC(N)=O)C(=O)N[C@@H]([C@@H](C)O)C(=O)N[C@@H](C)C(=O)N[C@@H]([C@@H](C)O)C(=O)N1)[C@@H](C)O [Compound 21, [19CD]-isoGlu-RC()NTATC()ATQRLAEFLRHSSNNF-Gly(Me)-A-Ile(Me)-LSSTNVGSNTP-NH2] ({C20 diacid-γGlu}-RCNTATCATQRLAEFLRHSSNNF[Sar]A[NMeI]LSSTNVGSNTP-NH2; disulfide 2-7) | 0.38 | SS (SS indicates solubility ≥ 1mg/ml) | SS (SS indicates solubility ≥ 1mg/ml) | SS (SS indicates solubility ≥ 1mg/ml) | SS (SS indicates solubility ≥ 1mg/ml) | SS (SS indicates solubility ≥ 1mg/ml) | SS (SS indicates solubility ≥ 1mg/ml) | SS (SS indicates solubility ≥ 1mg/ml) |
| 0.31 | CC[C@H](C)[C@@H](C(=O)N[C@@H](CC(C)C)C(=O)N[C@@H](CO)C(=O)N[C@@H](CO)C(=O)N[C@H](C(=O)N[C@@H](CC(N)=O)C(=O)N[C@H](C(=O)NCC(=O)N[C@@H](CO)C(=O)N[C@@H](CC(N)=O)C(=O)N[C@H](C(=O)N1CCC[C@H]1C(N)=O)[C@@H](C)O)C(C)C)[C@@H](C)O)N(C)C(=O)CN(C)C(=O)[C@H](Cc1ccccc1)NC(=O)[C@H](CC(N)=O)NC(=O)[C@H](CC(N)=O)NC(=O)[C@H](CO)NC(=O)[C@H](CO)NC(=O)[C@H](Cc1c[nH]cn1)NC(=O)[C@H](CCCNC(=N)N)NC(=O)[C@H](CC(C)C)NC(=O)[C@H](Cc1ccccc1)NC(=O)[C@H](CCC(=O)O)NC(=O)[C@H](C)NC(=O)[C@H](CC(C)C)NC(=O)[C@H](CCCNC(=N)N)NC(=O)[C@H](CCC(N)=O)NC(=O)[C@@H](NC(=O)[C@H](C)NC(=O)[C@@H]1CSSC[C@H](NC(=O)[C@H](CCCNC(=N)N)NC(=O)CC[C@H](NC(=O)CCCCCCCCCCCCCCCCCCC(=O)O)C(=O)O)C(=O)N[C@@H](CC(N)=O)C(=O)N[C@@H]([C@@H](C)O)C(=O)N[C@@H](C)C(=O)N[C@@H]([C@@H](C)O)C(=O)N1)[C@@H](C)O [Compound 22, [19CD]-isoGlu-RC()NTATC()ATQRLAEFLRHSSNNF-Gly(Me)-Ile(Me)-LSSTNVGSNTP-NH2] ({C20 diacid-γGlu}-RCNTATCATQRLAEFLRHSSNNF[Sar][NMeI]LSSTNVGSNTP-NH2; disulfide 2-7) |  | SS (SS indicates solubility ≥ 1mg/ml) | SS (SS indicates solubility ≥ 1mg/ml) | SS (SS indicates solubility ≥ 1mg/ml) | SS (SS indicates solubility ≥ 1mg/ml) | SS (SS indicates solubility ≥ 1mg/ml) | SS (SS indicates solubility ≥ 1mg/ml) | SS (SS indicates solubility ≥ 1mg/ml) |
